{"source": "paper PMC8070018", "about": "“Human Lanosterol 14-Alpha Demethylase (CYP51A1) Is a Putative Target for Natural Flavonoid Luteolin 7,3′-Disulfate” (Molecules, 2021)", "key": {"human CYP51A1 [1]": {"biological_target": "T1, human CYP51A1 (Homo sapiens, UniProt Q16850)", "T1 construct": "made in house", "T1 sequence (Q16850 1-509)": "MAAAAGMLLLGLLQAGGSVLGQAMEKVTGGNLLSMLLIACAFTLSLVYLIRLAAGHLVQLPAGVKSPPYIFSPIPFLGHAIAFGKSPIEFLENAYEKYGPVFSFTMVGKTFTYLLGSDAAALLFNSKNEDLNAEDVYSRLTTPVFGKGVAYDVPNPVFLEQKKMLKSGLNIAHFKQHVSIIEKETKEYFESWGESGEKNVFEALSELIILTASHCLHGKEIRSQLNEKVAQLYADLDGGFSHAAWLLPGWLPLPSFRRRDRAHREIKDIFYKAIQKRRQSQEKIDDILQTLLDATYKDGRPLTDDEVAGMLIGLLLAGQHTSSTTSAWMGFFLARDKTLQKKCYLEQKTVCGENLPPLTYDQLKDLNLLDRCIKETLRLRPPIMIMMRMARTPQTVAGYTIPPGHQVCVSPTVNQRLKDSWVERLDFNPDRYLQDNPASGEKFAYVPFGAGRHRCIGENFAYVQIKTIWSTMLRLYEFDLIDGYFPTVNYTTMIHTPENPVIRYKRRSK", "experiment": "Surface plasmon resonance binding to immobilized CYP51A1", "settings": "SPR; for Kd: immobilized CYP51A1, read-out: Kd (equilibrium dissociation constant)"}, "[2]": {"biological_target": "T2, human CYP51A1 (lanosterol 14α-demethylase) (Homo sapiens, UniProt Q16850)", "T2 construct": "made in house", "T2 sequence (Q16850 1-509)": "T1 sequence (Q16850 1-509)", "experiment": "Lanosterol 14α-demethylase activity of CYP51A1 in the reconstituted system", "type": "biochemical", "settings": "for Relative Activity: CYP51A1 0.5 μM, CPR 2.0 μM, lanosterol 50 μM"}, "human CYP51A1 [3]": {"biological_target": "T1, human CYP51A1", "experiment": "Spectrophotometric titration (difference spectra) of CYP51A1 in the presence of lanosterol", "type": "binding", "settings": "for spectral response in the difference spectrum of CYP51A1: titration in the presence of lanosterol, baicalein and luteolin 7,3′-disulfate up to 30 μM, luteolin up to 15 μM; for Kd: spectral titration, CYP51A1 4 μM, lanosterol 5 μM, pH 7.4, room temperature, read-out: apparent dissociation constant (Kdapp)", "experimental": "Spectrophotometric titration was used to determine the apparent dissociation constants (Kdapp) for the enzyme–ligand complexes. The spectral measurements were performed on Cary Series UV-Vis-NIR (Agilent Technologies, Santa Clara, CA, USA) spectrophotometer using tandem quartz cuvettes (1 cm optical path) to exclude the absorption of ligands. Natural substrate, lanosterol, at final concentration 5 μM was added before the titration to the CYP51A1 (final concentration 4 μM) in 50 mM potassium phosphate buffer, pH 7.4. […] The difference spectra were recorded after each addition of ligand at room temperature in the range of 350–500 nm. The apparent dissociation constants were determined by plotting the absorbance changes in the difference spectra versus the concentration of free ligand and evaluated by using the Hill equation (OriginPro 8.1 statistical data analysis package): Aobs=Amax×(S×n/Kdapp×n+S×n), where Aobs—the observed change in the absorption, Amax—the absorbance change at ligand saturation, Kdapp—the apparent dissociation constant for the ligand–enzyme complex, S—the ligand concentration, n—a Hill coefficient."}, "human CYP51A1 [4]": {"biological_target": "T1, human CYP51A1", "settings": "cited from earlier work; for Kd: read-out: Kdapp; for affinity: direct coordination with heme iron"}, "CYP2D6": {"tested_on": "CYP2D6", "set-up": "method as in PMID 32942157", "settings": "20 μM luteolin; cited from earlier work"}, "[5]": {"tested_on": "CYP1A2, CYP3A, CYP2B6, CYP2E1 and CYP2D6", "set-up": "method as in PMID 28872689, PMID 18191104", "settings": "range over CYP1A2, CYP3A; cited from earlier work"}, "CYP1A, CYP2B and CYP3A4": {"tested_on": "CYP1A, CYP2B and CYP3A4", "settings": "range over CYP1A; cited from earlier work"}, "CYP3A4": {"tested_on": "CYP3A4", "settings": "cited from earlier work"}, "CYP2C9": {"tested_on": "CYP2C9", "set-up": "method as in PMID 32661014", "settings": "comparable to positive control sulfaphenazole; cited from earlier work"}, "CYP2C19": {"tested_on": "CYP2C19", "settings": "cited from earlier work"}, "[6]": {"settings": "25 °C, Langmuir 1:1 model, n = 3, read-out: koff (dissociation rate constant)"}, "[7]": {"settings": "25 °C, Langmuir 1:1 model, n = 3, read-out: kon (association rate constant)"}, "[8]": {"settings": "25 °C, Two state reaction model, n = 3"}, "[9]": {"settings": "concentration-dependent, up to 30 μM"}}, "note": "Where two headings read alike, the source gives them in different places.", "data": [{"compound": "O=c1cc(-c2ccc(O)c(OS(=O)(=O)O)c2)oc2cc(OS(=O)(=O)O)cc(O)c12", "note": "[luteolin 7,3′-disulfate]", "values": [{"measurement": "koff", "setting": "human CYP51A1 [1]; [6]", "result": 0.00084, "unit": "s⁻¹"}, {"measurement": "kon", "setting": "human CYP51A1 [1]; [7]", "result": 294, "unit": "M⁻¹ s⁻¹"}, {"measurement": "Kd", "setting": "human CYP51A1 [1]; 25 °C", "result": 2.9, "unit": "µM"}, {"measurement": "association rate of the CYP51A1 complex compared to lanosterol", "setting": "human CYP51A1 [1]; relative to complex formation with lanosterol", "result": "seven times faster"}, {"measurement": "dissociation rate of the CYP51A1 complex compared to lanosterol", "setting": "human CYP51A1 [1]; relative to complex with lanosterol", "result": "about eight times higher"}, {"measurement": "Relative Activity", "setting": "[2]; compound 25 μM", "result": 49.9, "unit": "%"}, {"measurement": "inhibition at 25 µM", "setting": "[2]; compound 25 μM, read-out: level of inhibition", "result": 50.1, "unit": "%"}, {"measurement": "IC50", "setting": "[2]; reconstituted system, 5, 10, 25, 50 and 100 μM tested, read-out: apparent IC50", "result": "> 25", "unit": "µM"}, {"measurement": "spectral response in the difference spectrum of CYP51A1", "setting": "human CYP51A1 [3]", "result": "does not cause changes in the difference spectrum"}]}, {"compound": "CC(C)=CCC[C@@H](C)[C@H]1CC[C@@]2(C)C3=C(CC[C@]12C)[C@@]1(C)CC[C@H](O)C(C)(C)[C@@H]1CC3", "note": "[lanosterol]", "values": [{"measurement": "koff", "setting": "human CYP51A1 [1]; [6]", "result": 0.0001, "unit": "s⁻¹"}, {"measurement": "kon", "setting": "human CYP51A1 [1]; [7]", "result": 41.4, "unit": "M⁻¹ s⁻¹"}, {"measurement": "Kd", "setting": "human CYP51A1 [1]; 25 °C", "result": 2.4, "unit": "µM"}]}, {"compound": "C[C@]12CC[C@H](O)CC1=CC[C@@H]1[C@@H]2CC[C@]2(C)C(n3cnc4ccccc43)=CC[C@@H]12", "note": "[galeterone]", "values": [{"measurement": "Kd", "setting": "human CYP51A1 [4]", "result": 16, "unit": "µM"}]}, {"compound": "O=c1cc(-c2ccc(O)c(O)c2)oc2cc(O)cc(O)c12", "note": "[luteolin]", "values": [{"measurement": "koff2 (backward rate constant for CP ↔ CP* transition)", "setting": "human CYP51A1 [1]; [8]", "result": "koff2 (1/s × 10^−4) = 14 ± 2"}, {"measurement": "kon2 (forward rate constant for CP ↔ CP* transition)", "setting": "human CYP51A1 [1]; [8]", "result": "kon2 (1/s × 10^−4) = 33 ± 4"}, {"measurement": "koff", "setting": "human CYP51A1 [1]; 25 °C, Two state reaction model, n = 3, read-out: koff1 (dissociation rate constant)", "result": 0.019, "unit": "s⁻¹"}, {"measurement": "kon", "setting": "human CYP51A1 [1]; 25 °C, Two state reaction model, n = 3, read-out: kon1 (association rate constant)", "result": 282, "unit": "M⁻¹ s⁻¹"}, {"measurement": "Kd", "setting": "human CYP51A1 [1]; 25 °C", "result": 20, "unit": "µM"}, {"measurement": "Relative Activity", "setting": "[2]; compound 25 μM", "result": 92.6, "unit": "%"}, {"measurement": "O-demethylation of 3-[2-(N,N-diethyl-N-methyl-ammonium)ethyl]-7-methoxy-4-methylcoumarin inhibited to", "setting": "CYP2D6", "result": 40, "unit": "%"}, {"measurement": "inhibition in reaction with dextromethorphan", "setting": "CYP2D6", "result": "< 5", "unit": "%"}, {"measurement": "Kd", "setting": "human CYP51A1 [3]", "result": "5.1 ± 0.5", "unit": "µM"}, {"measurement": "spectral response in the difference spectrum of CYP51A1", "setting": "human CYP51A1 [3]", "result": "reverse type I spectral response"}, {"measurement": "IC50", "setting": "[5]", "result": "1.6 to 133", "unit": "µM"}]}, {"compound": "O=c1cc(-c2ccccc2)oc2cc(O)c(O)c(O)c12", "note": "[baicalein]", "values": [{"measurement": "Kd", "setting": "human CYP51A1 [1]; 25 °C", "result": 12.5, "unit": "µM"}, {"measurement": "Kd", "setting": "human CYP51A1 [3]", "result": "8.2 ± 0.4", "unit": "µM"}, {"measurement": "spectral response in the difference spectrum of CYP51A1", "setting": "human CYP51A1 [3]", "result": "reverse type I spectral response"}, {"measurement": "IC50", "setting": "CYP1A, CYP2B and CYP3A4", "result": "0.5 to 36", "unit": "µM"}]}, {"compound": "CCCN(CCc1ccc(Cl)c(Cl)c1)CC(O)c1cccnc1", "note": "(stereo not drawn) [LK-935, 2-((3,4-Dichlorophenethyl)(Propyl)Amino)-1-(Pyridin-3-Yl)Ethanol]", "values": [{"measurement": "affinity", "setting": "human CYP51A1 [4]", "result": "submicromolar range"}]}, {"compound": "O=c1cc(-c2ccccc2)oc2cc(OS(=O)(=O)O)cc(O)c12", "note": "[chrysin 7-sulfate]", "values": [{"measurement": "inhibition effect", "setting": "CYP3A4", "result": "slight inhibition effect"}, {"measurement": "IC50", "setting": "CYP2C9", "result": 2.7, "unit": "µM"}, {"measurement": "inhibition effect", "setting": "CYP2C19", "result": "slight inhibition effect"}]}, {"compound": "Clc1ccc(COC(Cn2ccnc2)c2ccc(Cl)cc2Cl)cc1", "note": "(stereo not drawn) [econazole]", "values": [{"measurement": "affinity", "setting": "human CYP51A1 [4]", "result": "submicromolar range"}]}, {"compound": "C[C@]12CC[C@H](O)CC1=CC[C@@H]1[C@@H]2CC[C@]2(C)C(c3cccnc3)=CC[C@@H]12", "note": "[abiraterone]", "values": [{"measurement": "Kd", "setting": "human CYP51A1 [4]", "result": 22, "unit": "µM"}]}, {"compound": "O=c1c(O)c(-c2ccc(O)c(OS(=O)(=O)O)c2)oc2cc(O)cc(O)c12", "note": "[quercetin 3′-sulfate]", "values": [{"measurement": "inhibition effect", "setting": "CYP3A4; [9]", "result": "≤ 50", "unit": "%"}, {"measurement": "inhibition effect", "setting": "CYP2C19; [9]", "result": "≤ 50", "unit": "%"}]}]}
